# According to patent US10420815B2, “Combinational therapy for synergistic inhibition of gram-positive and gram-negative bacteria” (priority 2015, dated 2019):
# Like-named read-outs stand apart in the source and are kept apart here. Bridge positions count the residues as written; N and C are the ends. Square brackets hold non-standard residues; d marks the D form. Peptide text beside a SMILES is read from it. * marks the point of attachment. Ileψ(thiazoline)Cys = CC[C@H](C)[C@H](N)C1=N[C@H](C(=O)*)CS1; dOrn = NCCC[C@@H](N)C(=O)O
# Tests used:
# MRSA 3903 = test: microbe, parasite or virus in culture; assay type: cell-based, Staphylococcus aureus; settings: MRSA 3903 (human/skin)
# From the text: (§1) MRSA (ATCC 33593), MSSA (ATCC 29213), and MRSA USA300 (BAA-1680) strains were purchased from the American Type Culture Collection (ATCC; Manassas, Va.). Eight clinical isolates of MRSA were obtained from the Culture Collection of Antimicrobial Resistant Microbes, Korea National Research Resource Center (KNRRC). Salmonella enterica Typhimurium LT2 was purchased from ATCC, and Escherichia coli O157:H7 is a kind gift from Dr. Sangryeol Ryu (Seoul National University, South Korea). All S. aureus strains were maintained in Trypticase Soy (TS) medium, and E. coli O157:H7 and Salmonella were routinely grown aerobically on Luria-Bertani (LB) media at 37° C. For measuring growth kinetics, an overnight culture of MRSA in Mueller-Hinton (MH) broth was diluted 100-fold in fresh MH broth and cultured until early exponential phase. The culture (200 μl) was transferred to each well of a sterile 96-well plate and incubated at 37° C. with bacitracin alone, alkyl gallate alone, and combination of bacitracin/alkyl gallates at various concentrations. The optical density at 600 nm (OD600) was measured every hour with FLUOstar® Omega (BMG Labtech, Germany).
# (§2) Broth micro dilution assays were performed to determine the minimum inhibitory concentrations (MIC) accordance to the M7-A7 protocol of the Clinical and Laboratory Standards Institute (CLSI) guidelines^28. The susceptibility test was carried out with an initial bacterial inoculum of 1.5×10^5 CFU ml^−1. Alkyl gallates and bacitracin were serially diluted in a polystyrene 96 well plate and the plate was incubated at 37° C. for 24 h. Minimum bactericidal concentration (MBC) was determined by spotting 10 μl of cultures from MIC tests onto MH agar and incubated aerobically at 37° C.
# MRSA 3865 = test: microbe, parasite or virus in culture; assay type: cell-based, Staphylococcus aureus; settings: MRSA 3865 (human/skin)
# From the text: as §1, §2
# MRSA 3799 = test: microbe, parasite or virus in culture; assay type: cell-based, Staphylococcus aureus; settings: MRSA 3799 (human/nose)
# From the text: as §1, §2
# MRSA 3876 = test: microbe, parasite or virus in culture; assay type: cell-based, Staphylococcus aureus; settings: MRSA 3876 (human/skin)
# From the text: as §1, §2
# MRSA 3095 = test: microbe, parasite or virus in culture; assay type: cell-based, Staphylococcus aureus; settings: MRSA 3095 (human/skin)
# From the text: as §1, §2
# MRSA 3823 = test: microbe, parasite or virus in culture; assay type: cell-based, Staphylococcus aureus; settings: MRSA 3823 (human/nose)
# From the text: as §1, §2
# MRSA 3795 = test: microbe, parasite or virus in culture; assay type: cell-based, Staphylococcus aureus; settings: MRSA 3795 (human/nose)
# From the text: as §1, §2
# MRSA 3A585 = test: microbe, parasite or virus in culture; assay type: cell-based, Staphylococcus aureus; settings: MRSA 3A585 (human/blood)
# From the text: as §1, §2
# MRSA USA300 (BAA-1680) [1] = test: microbe, parasite or virus in culture; assay type: cell-based, Staphylococcus aureus; settings: for bactericidal activity in combination with bacitracin: FIG. 2
# From the text: as §1, §2
# MRSA USA300 (BAA-1680) [2] = test: Growth kinetics (OD600) with bacitracin, alkyl gallates and combinations; assay type: cell-based, Staphylococcus aureus; settings: for growth inhibition by bacitracin in combination with alkyl gallate: bacitracin 0.001 U to 100 U
# From the text: as §1
# MSSA (ATCC 29213) = test: MIC (broth dilution) and MBC (spotting) of phenolic antioxidants and bacitracin; assay type: cell-based, Staphylococcus aureus; settings: for MIC: antioxidant alone
# From the text: as §1, §2
# (§3) MICs were determined with MRSA and methicillin-sensitive S. aureus (MSSA) using a broth dilution method as described above.
# (§4) MRSA and MSSA were cultured overnight with antioxidants (0.5 μg/ml) and bacitracin at various concentrations and 10 μL of the culture was spotted on MH agar plates and incubated aerobically at 37° C. to observe the bacterial viability. The results in FIGS. 9A, 9B, 9C and 9D (photographs of plates) show the Minimal Bactericidal Concentrations (MBCs) for indicated antioxidants. Bacitracin killed MRSA and MSSA at concentrations greater than or equal to 2 μg/mi.
# USA300 = test: Bacterial membrane permeability (propidium iodide fluorescence); assay type: cell-based, Staphylococcus aureus; settings: agent alone, sub-MIC levels, EDTA 1 mM
# Protocol: Membrane permeability was determined by measuring fluorescence after exposure of USA300 to propidium iodide as described previously^29. Briefly, USA300 was grown in MH broth to the exponential phase and then diluted to OD600≈0.25. Propidium iodide was mixed with bacteria to a final concentration of 10 μM. […] Fluorescence was monitored at excitation and emission wavelengths of 585 nm and 620 nm, respectively, for 1 h using FLUOstar Omega® (BMG Labtech, Germany). The membrane permeability was calculated by subtracting fluorescence intensity of controls without treatment with phenolic compounds from that of treated samples. EDTA (1 mM) was used as a positive control.
# MRSA (ATCC 33593) = test: microbe, parasite or virus in culture; assay type: cell-based, Staphylococcus aureus; settings: MRSA; for MIC: antioxidant alone
# From the text: as §1, §2, §3, §4
# [3] = system: MRSA (normal MRSA strain, not USA300); test: MRSA growth (optical density) with bacitracin and phenolic antioxidants; assay type: cell-based, Staphylococcus aureus
# From the text: as §1
# MRSA were grown with bacitracin (0.002 μg/mL) with antioxidant (as shown) at 0.5 μg/mL.
# FIG. 7A is growth with no added bacitracin or lauryl gallate.
# The optical density of MRSA was measured after 18 h culture with bacitracin (0.002 μg/ml) and antioxidants (as indicated at 0.5 μg/ml). Also measured were controls with no additions, with bacitracin alone and with antioxidant alone. FIGS. 8A, 8B, 8C and 8D are graphs illustrating the results.
# Escherichia coli O157:H7 = test: microbe, parasite or virus in culture; assay type: cell-based; settings: E. coli O157:H7; agent alone
# From the text: as §1, §2
# MIC and MBC were measured as described above. MIC and MBC data are shown in Table 5 for both the Salmonella and the E. coli strain tested. The tested strains were highly resistant to bacitracin.
# [4] = Staphylococcus aureus, read-out: MIC
# [5] = Staphylococcus aureus, 24 h, agent alone, read-out: MIC
# [6] = Staphylococcus aureus, agent alone, read-out: MBC
# [7] = antioxidant 0.5 μg/ml, compared to bacitracin alone
SMILES,MIC (MRSA 3903; [4]) [µg/mL],MIC (MRSA 3865; [4]) [µg/mL],MIC (MRSA 3799; [4]) [µg/mL],MIC (MRSA 3876; [4]) [µg/mL],MIC (MRSA 3095; [4]) [µg/mL],MIC (MRSA 3823; [4]) [µg/mL],MIC (MRSA 3795; [4]) [µg/mL],MIC (MRSA 3A585; [4]) [µg/mL],growth inhibition by bacitracin in combination with alkyl gallate (MRSA USA300 (BAA-1680) [2]),MBC (MRSA USA300 (BAA-1680) [1]; agent alone) [µg/mL],MIC (MRSA USA300 (BAA-1680) [1]; agent alone) [µg/mL],also measured
"CCCCOC(=O)c1cc(O)c(O)c(O)c1 [Butyl gallate (BG), Butyl gallate]",512,512,512,512,512,512,512,512,significant growth inhibition,,,bactericidal activity in combination with bacitracin (MRSA USA300 (BAA-1680) [1]): synergistic antimicrobial activity; MIC (MRSA USA300 (BAA-1680) [1]; [5]): 512 µg/mL; MBC (MRSA USA300 (BAA-1680) [1]; [6]): 1020 µg/mL
"CCOC(=O)c1cc(O)c(O)c(O)c1 [Ethyl gallate (EG), ethyl gallate]",> 1020,> 1020,> 1020,> 1020,> 1020,> 1020,> 1020,> 1020,significant growth inhibition,256,128,
"CCCCCCCCCCCCCCCCCCOC(=O)c1cc(O)c(O)c(O)c1 [Stearyl gallate (SG), stearyl gallate]",> 1020,> 1020,> 1020,> 1020,> 1020,> 1020,> 1020,> 1020,completely inhibited the growth of USA300,,,"bactericidal activity in combination with bacitracin (MRSA USA300 (BAA-1680) [1]): killing effect was not as significant as OG, LG, and BG; MIC (MRSA USA300 (BAA-1680) [1]; [5]): 1020 µg/mL; MBC (MRSA USA300 (BAA-1680) [1]; [6]): 2050 µg/mL"
"COC(=O)c1cc(O)c(O)c(O)c1 [Methyl gallate (MG), methyl gallate]",> 1020,> 1020,> 1020,> 1020,> 1020,> 1020,> 1020,> 1020,significant growth inhibition,256,128,
"CC[C@H](C)[C@H](N)C1=N[C@H](C(=O)N[C@@H](CC(C)C)C(=O)N[C@H](CCC(=O)O)C(=O)N[C@H](C(=O)N[C@H]2CCCCNC(=O)[C@H](CC(N)=O)NC(=O)[C@@H](CC(=O)O)NC(=O)[C@H](Cc3cnc[nH]3)NC(=O)[C@@H](Cc3ccccc3)NC(=O)[C@H]([C@@H](C)CC)NC(=O)[C@@H](CCCN)NC2=O)[C@@H](C)CC)CS1 [Bacitracin, reference compound] ({Ileψ(thiazoline)Cys}-L[dE]IK[dOrn]I[dF]H[dD]N; lactam 4-C)",,,,,,,,,,2048,1024,"MIC (MRSA 3903): 32 µg/mL; MIC (MRSA 3865): 128 µg/mL; MIC (MRSA 3799): 128 µg/mL; MIC (MRSA 3876): 128 µg/mL; MIC (MRSA 3095): 128 µg/mL; MIC (MRSA 3823): 64 µg/mL; MIC (MRSA 3795): 8 µg/mL; MIC (MRSA 3A585): 128 µg/mL; concentration of bacitracin alone that killed (MBC) (MSSA (ATCC 29213); bacitracin alone): greater than or equal to 2 μg/mi; MBC (MRSA USA300 (BAA-1680) [1]; bacitracin alone, in units): 200 U; MIC (MRSA USA300 (BAA-1680) [1]; bacitracin alone, in units): 100 U; membrane permeability (USA300): did not affect membrane permeability; growth inhibition by bacitracin only (MRSA USA300 (BAA-1680) [2]; up to 100 U bacitracin, without alkyl gallates): did not inhibit USA300; bacitracin MIC for MRSA (MRSA (ATCC 33593); bacitracin alone): 2 µg/mL; concentration of bacitracin alone that killed (MBC) (MRSA (ATCC 33593); bacitracin alone): greater than or equal to 2 μg/mi; MRSA growth inhibition by bacitracin alone ([3]; bacitracin 0.0019 μg/mL to 1 μg/mL, FIG. 7B): did not inhibit MRSA; MBC (Escherichia coli O157:H7): >1024 µg/mL; MIC (Escherichia coli O157:H7): >1024 µg/mL"
"CCCOC(=O)c1cc(O)c(O)c(O)c1 [Propyl gallate, propyl gallate]",> 1020,> 1020,512,> 1020,> 1020,512,512,> 1020,,256,128,"MIC (MSSA (ATCC 29213); [4]): 128 µg/mL; fold decrease of bacitracin MBC by antioxidant (MSSA (ATCC 29213); [7]): 16 fold; MIC (MSSA (ATCC 29213)): 64 µg/mL; fold decrease of bacitracin MBC by antioxidant (MRSA (ATCC 33593); [7]): 8 fold; MIC (MRSA (ATCC 33593)): 512 µg/mL; MIC (MRSA (ATCC 33593); [4]): 256 µg/mL; growth of MRSA with bacitracin plus antioxidant ([3]; bacitracin 0.002 μg/mL, antioxidant 0.5 μg/mL, FIG. 6): significantly inhibited the growth of MRSA"
"O=C(O)CN(CCN(CC(=O)O)CC(=O)O)CC(=O)O [EDTA, reference compound]",,,,,,,,,,,,membrane permeability (USA300): significantly increased membrane permeability
